From patent publication US7253191B2, “2-thio-substituted imidazole derivatives and the use thereof in the pharmaceutical industry” (Merckle GmbH, priority 2001, dated 2007)

What was measured:
[1] = tested on: TNF-α; test: In vitro test of cytokine release: LPS-stimulated human whole blood / PBMCs, TNFα by ELISA; format: cell-based; conditions: for IC50: LPS (E.coli 026:B6) stimulation 4 hours, table does not say whole blood or PBMCs; for TNF-α, value given in %: concentration not given
Procedure: (§1) They may be administered in one individual dose or in a plurality of doses. The activity spectrum of the compounds as inhibitors of cytokine release was examined using the test systems below, as described by C. Donat and S. Laufer in Arch. Pharm. Pharm. […] 1, 1-40, 2000.
(§2) The reaction is stopped by placing the samples on ice, adding DPBS buffer and then centrifuging at 1000*g for 15 min. The amount of IL-1β and TNFα in the plasma supernatant is then determined by ELISA.
(§3) The cells are washed twice with DPBS buffer, resuspended in macrophage SFM medium and adjusted to a cell count of 1*10^6 cells/ml.
(§4) The reaction is stopped by placing the samples on ice, adding DPBS buffer and then centrifuging at 15 880*g for 12 min. The amount of IL-1β and TNFα in the plasma supernatant is then determined by ELISA.

[2] = tested on: IL-1β; test: In vitro test of cytokine release: LPS-stimulated human whole blood / PBMCs, IL-1β by ELISA; format: cell-based; conditions: for IC50: LPS (E.coli 026:B6) stimulation 4 hours, table does not say whole blood or PBMCs
Procedure: as §1, §2, §3, §4

| IC50 ([1]; Homo sapiens, Table 2) [µM] | IC50 ([2]; Homo sapiens, Table 2) [µM] | Structure (SMILES) | further results |
| --- | --- | --- | --- |
| – | – | CCCn1c(Sc2ccccc2)nc(-c2ccc(F)cc2)c1-c1ccncc1 [Example 52, 4-(4-Fluorophenyl)-2-phenylthio-1-n-propyl-5-(4-pyridyl)imidazole] | IC50 ([1]; Homo sapiens, Table 1): 14 µM; IC50 ([2]; Homo sapiens, Table 1): 1 µM |
| – | – | CCCn1c(Sc2ccc(Cl)cc2)nc(-c2ccc(F)cc2)c1-c1ccncc1 [Example 53, 2-(4-Chlorophenyl)thio-4-(4-fluorophenyl)-1-n-propyl-5-(4-pyridyl)-imidazole] | IC50 ([1]; Homo sapiens, Table 1): 29 µM; IC50 ([2]; Homo sapiens, Table 1): 3.3 µM |
| – | – | CCCn1c(Sc2ccc(SC)cc2)nc(-c2ccc(F)cc2)c1-c1ccncc1 [Example 54, 4-(4-Fluorophenyl)-2-(4-methylsulfanyl)phenylsulfanyl-1-n-propyl-5-(4-pyridyl)imidazole] | IC50 ([1]; Table 1): 68 µM; IC50 ([2]; Table 1): 2.5 µM |
| – | – | CCCn1c(Sc2ccc([S+](C)[O-])cc2)nc(-c2ccc(F)cc2)c1-c1ccncc1 (stereo not shown) [Example 55, 4-(4-Fluorophenyl)-2-[(4-methylsulfinyl)phenyl]thio-1-n-propyl-5-(4-pyridyl)imidazole] | IC50 ([1]; Table 1): 6.2 µM; IC50 ([2]; Table 1): 0.72 µM |
| – | – | CCCn1c(Sc2ccc(S(C)(=O)=O)cc2)nc(-c2ccc(F)cc2)c1-c1ccncc1 [Example 56, 4-(4-Fluorophenyl)-2-[(4-methylsulfonyl)phenyl]thio-1-n-propyl-5-(4-pyridyl)imidazole] | IC50 ([1]; Table 1): 19 µM; IC50 ([2]; Table 1): 1.5 µM |
| – | – | Cc1nc(S)n(-c2ccc(F)cc2)c1-c1ccncc1 [Example 57, 1-(4-Fluorophenyl)-4-methyl-5-(4-pyridyl)imidazole-2-thiol] | TNF-α, value given in % ([1]; Table 1): 34%; IC50 ([2]; Homo sapiens, Table 1): 19 µM |
| – | – | Cc1c(-c2ccc(F)cc2)nc(S)n1-c1cccnc1 [Example 58, 4-(4-Fluorophenyl)-5-methyl-1-(3-pyridyl)imidazole-2-thiol] | TNF-α, value given in % ([1]; Table 1): 32%; IC50 ([2]; Homo sapiens, Table 1): 28 µM |
| – | – | CCCn1c(S)nc(-c2ccncc2)c1-c1ccc(F)cc1 [Example 59] | IC50 ([1]; Table 1): 83 µM; IL-1β, value given in % ([2]; Table 1, concentration not given): 16% |
| 0.87 | 0.07 | CSc1nc(-c2ccc(F)cc2)c(-c2ccnc(NC(C)=O)c2)n1C [Example 61, 4-(4-Fluorophenyl)-1-methyl-5-(2-acetamido-4-pyridyl)-2-methyl-thioimidazole] | – |
| 0.49 | 0.12 | CCCn1c(SC)nc(-c2ccc(F)cc2)c1-c1ccnc(NC(C)=O)c1 [Example 62, 4-(4-Fluorophenyl)-1-n-propyl-5-(2-acetamido-4-pyridyl)-2-methyl-thioimidazole] | – |
| 4.5 | 0.46 | CSc1nc(-c2ccc(F)cc2)c(-c2ccnc(NC(C)=O)c2)n1C1CC(C)(C)NC(C)(C)C1 [Example 63, 4-(4-Fluorophenyl)-1-(2,2,6,6-tetramethylpiperidin-4-yl)-5-(2-acetamido-4-pyridyl)-2-methylthioimidazole] | – |
| 2.3 | 0.27 | CSc1nc(-c2ccc(F)cc2)c(-c2ccnc(N)c2)n1C [Example 66, 4-(4-Fluorophenyl)-1-methyl-5-(2-amino-4-pyridyl)-2-methyl-thioimidazole] | – |
| 0.64 | 0.44 | COc1ccc(C(=O)Nc2cc(-c3c(-c4ccc(F)cc4)nc(SC)n3C)ccn2)cc1 [Example 67, 4-([lacuna]-Fluorophenyl)-1-methyl-5-[2-(4-methoxybenzamido)-4-pyridyl]-2-methylthioimidazole] | – |
| 0.39 | 0.08 | CSc1nc(-c2ccc(F)cc2)c(-c2ccnc(NCc3ccccc3)c2)n1C [Example 70, 4-(4-Fluorophenyl)-1-methyl-5-(2-benzylamino-4-pyridyl)-2-methyl-thioimidazole] | – |
| 0.35 | 0.05 | CCNc1cc(-c2c(-c3ccc(F)cc3)nc(SC)n2C)ccn1 [Example 73] | – |
| 0.41 | 0.15 | CCCn1c(SC)nc(-c2ccc(F)cc2)c1-c1ccnc(NCC)c1 [Example 74, 4-(4-Fluorophenyl)-1-n-propyl-5-(2-ethylamino-4-pyridyl)-2-methylthioimidazole] | – |
| 2.9 | 0.62 | CCNc1cc(-c2c(-c3ccc(F)cc3)nc(SC)n2C2CC(C)(C)NC(C)(C)C2)ccn1 [Example 75] | – |
